Consider 3 compounds from patent US7598072B2 (priority 2003, dated 2009).

Assay [1] relates to ASLV. The assay is classed as cell-based, avian sarcoma and leukosis virus. To be noted: 3 mM NH4Cl, data not shown.
Assay [2] concerns ASLV. To be noted: 30 mM or higher concentrations of NH4Cl; cited from earlier work.
The subject of assay [3] is HIV [EnvA] pseudotyped virus. Nature of the assay: HIV [EnvA] cell-free fusion/uncoating reaction, HIV-1 early DNA by real-time PCR. The note with it: 4.5 mM, 200 μg 293 S10 fraction, 6 hour incubation. The assay is classed as biochemical. (In general: In qPCR the cycle at which signal appears reflects the starting amount.)
The test system of assay [4] is ASLV-A vector RCASBP(A)-EGFP. In kind it is biochemical, avian sarcoma and leukosis virus.

Like-named read-outs stand apart in the source and are kept apart here.

On to `Cl.N` [NH4Cl, ammonium chloride], for which the entries for the “ASLV fusion and entry into cells” value in assay [1] and in assay [2] were “unaffected” and “effectively blocked”, respectively.

Consider `Nc1ncnc2c1ncn2[C@@H]1O[C@H](CO[P@](=O)(O)O[P@](=O)(O)O[P@@](=O)(O)S)[C@@H](O)[C@H]1O` [adenosine 5′-[γ-thio]triphosphate], for which, in assay [3], the “effect on stimulation of HIV-1 early DNA synthesis in the cell-free system” value is listed as “markedly reduced”. Besides, the “effect on stimulation of ASLV early DNA synthesis in the cell-free system” value in assay [4] (2.5 mM, 150 μg 293 S10 fraction, 6 hour incubation) is reported as “markedly reduced”.

As for apyrase, the “effect on amount of ASLV early DNA products” value in assay [4] (10 units/ml apyrase added 30 minutes or later after initiating the cell-free reaction) was “little or no effect”; in assay [4] (10 units/ml apyrase, 150 μg 293 S10 fraction), “reduced”.
